Data: US20260176320A1, “MODULATORS OF G-PROTEIN COUPLED RECEPTORS” (priority 2018, published 2026)
Like-named read-outs stand apart in the source and are kept apart here. Square brackets hold non-standard residues; d marks the D form. Peptide text beside a SMILES is read from it. * marks the point of attachment. X1 = O=C(CSCC(=O)*)NCCN1C(=O)c2ccccc2C1=O; Aib = CC(C)(N)C(=O)O

Legend:
Assay type in all cases: cell-based
[1] = biological target: T1, GLP-1R (Homo sapiens, UniProt P43220); assay: PathHunter β-arrestin assay
How it was run: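 Agonist concentration–response (22 points, 2-fold steps, duplicates) was run on cells plated the previous day in BSA-supplemented (0.2%) medium. Stimulation lasted 90 min at 37 °C, followed by a 3 h dark incubation with detection reagent at room temperature and a luminescence read.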

[2] = biological target: T2, GIP-R (Homo sapiens, UniProt P48546); assay: HitHunter cAMP assay (GIP-R); conditions: cAMP; for Emax: read-out: (Emax) GIP-R
T2 sequence (P48546 22-466): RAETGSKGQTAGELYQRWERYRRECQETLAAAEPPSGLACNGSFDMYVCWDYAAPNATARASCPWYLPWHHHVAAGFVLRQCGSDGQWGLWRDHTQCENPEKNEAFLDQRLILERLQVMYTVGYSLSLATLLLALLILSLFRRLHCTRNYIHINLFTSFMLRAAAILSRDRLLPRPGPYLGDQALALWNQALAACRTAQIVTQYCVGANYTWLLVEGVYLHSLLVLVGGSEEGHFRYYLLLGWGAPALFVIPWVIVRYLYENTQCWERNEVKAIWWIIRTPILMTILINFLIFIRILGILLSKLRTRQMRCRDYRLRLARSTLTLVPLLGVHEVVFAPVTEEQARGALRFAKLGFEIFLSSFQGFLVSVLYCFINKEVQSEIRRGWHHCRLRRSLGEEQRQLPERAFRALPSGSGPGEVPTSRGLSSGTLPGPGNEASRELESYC
How it was run: (§1)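 Cells were resuspended in HBSS plus HEPES, IBMX (625 μM) and BSA, then dispensed with antibody at 10,000 per well. Agonists followed as 22-point twofold series, 30 min at room temperature. Antibody reagent and detection steps ran 1 h and overnight in the dark before luminescence.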

[3] = biological target: T1, GLP-1R; assay: HitHunter cAMP assay (GLP-1R); conditions: cAMP; for Emax: read-out: (Emax) GLP-1R
How it was run: as §1

[4] = PathHunter β-arrestin assay, read-out: β-arrestin activity EC50
[5] = Table 3A, read-out: EC50 GIP-R/nM
[6] = Table 3A, read-out: EC50 GLP-1R/nM
[7] = Table 3, read-out: EC50 GIP-R/nM
[8] = Table 3, read-out: EC50 GLP-1R/nM

T1 sequence (P43220 24-463): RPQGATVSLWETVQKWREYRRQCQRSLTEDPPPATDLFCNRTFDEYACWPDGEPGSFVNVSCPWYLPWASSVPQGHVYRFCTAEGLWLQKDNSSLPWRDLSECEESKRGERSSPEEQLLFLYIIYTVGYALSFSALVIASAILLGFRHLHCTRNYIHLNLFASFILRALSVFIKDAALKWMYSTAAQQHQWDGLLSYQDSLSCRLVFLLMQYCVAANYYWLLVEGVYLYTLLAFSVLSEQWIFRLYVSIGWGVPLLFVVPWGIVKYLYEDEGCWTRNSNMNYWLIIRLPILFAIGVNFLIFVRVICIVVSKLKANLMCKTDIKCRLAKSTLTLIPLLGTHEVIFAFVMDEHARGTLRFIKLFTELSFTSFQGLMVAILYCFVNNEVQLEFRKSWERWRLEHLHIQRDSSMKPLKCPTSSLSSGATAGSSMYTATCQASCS

CC[C@H](C)[C@H](NC(=O)[C@H](CO)NC(=O)[C@H](Cc1ccc(O)cc1)NC(=O)[C@H](CC(=O)O)NC(=O)[C@H](CO)NC(=O)[C@@H](NC(=O)[C@H](Cc1ccccc1)NC(=O)[C@@H](NC(=O)CNC(=O)[C@H](CCC(=O)O)NC(=O)CSCC(=O)NCCN1C(=O)c2ccccc2C1=O)[C@@H](C)O)[C@@H](C)O)C(=O)N[C@@H](Cc1ccc(O)cc1)C(=O)N[C@@H](CC(C)C)C(=O)N[C@@H](CC(=O)O)C(=O)N[C@@H](CCCCN)C(=O)N[C@@H](CCC(N)=O)C(=O)N[C@@H](C)C(=O)N[C@H](C(=O)NC(C)(C)C(=O)N[C@@H](CCC(=O)O)C(=O)N[C@@H](Cc1ccccc1)C(=O)N[C@H](C(=O)N[C@@H](CC(N)=O)C(=O)N[C@@H](Cc1c[nH]c2ccccc12)C(=O)N[C@@H](CC(C)C)C(=O)N[C@@H](CC(C)C)C(=O)N[C@@H](C)C(=O)NCC(=O)NCC(=O)N1CCC[C@H]1C(=O)N[C@@H](CO)C(=O)N[C@@H](CO)C(=O)NCC(=O)N[C@@H](C)C(=O)N1CCC[C@H]1C(=O)N1CCC[C@H]1C(=O)N1CCC[C@H]1C(=O)N[C@@H](CO)C(=O)N[C@@H](CCCCN)C(N)=O)[C@@H](C)CC)C(C)C [Compound 133] (X1-EGTFTSDYSIYLDKQAV[Aib]EFINWLLAGGPSSGAPPPSK-NH2)
EC50 [1]: > 1000 nM
EC50 ([2]; EC50 GIP-R/nM, Table 3): 0.1 to 1 nM
EC50 ([2]; EC50 GIP-R/nM, Table 3A): 0.1 to 1 nM
Emax ([2]; Table 3): 104%
Emax ([2]; Table 3A): 104%
EC50 ([3]; EC50 GLP-1R/nM, Table 3): 1 to 10 nM
EC50 ([3]; EC50 GLP-1R/nM, Table 3A): 1 to 10 nM
Emax ([3]; Table 3): 98%
Emax ([3]; Table 3A): 98%

CCCCCCCCCCCCCCCC(=O)N[C@@H](CCC(=O)NCCCC[C@H](NC(=O)[C@H](CO)NC(=O)[C@@H]1CCCN1C(=O)[C@@H]1CCCN1C(=O)[C@@H]1CCCN1C(=O)[C@H](C)NC(=O)CNC(=O)[C@H](CO)NC(=O)[C@H](CO)NC(=O)[C@@H]1CCCN1C(=O)CNC(=O)CNC(=O)[C@H](C)NC(=O)[C@H](CC(C)C)NC(=O)[C@H](CC(C)C)NC(=O)[C@H](Cc1c[nH]c2ccccc12)NC(=O)[C@H](CC(N)=O)NC(=O)[C@@H](NC(=O)[C@H](Cc1ccccc1)NC(=O)[C@H](CCC(=O)O)NC(=O)C(C)(C)NC(=O)[C@H](C)NC(=O)[C@H](C)NC(=O)[C@H](CCC(N)=O)NC(=O)[C@H](CCCCN)NC(=O)[C@H](CC(=O)O)NC(=O)[C@H](CC(C)C)NC(=O)[C@H](Cc1ccc(O)cc1)NC(=O)[C@@H](NC(=O)[C@H](CO)NC(=O)[C@H](Cc1ccc(O)cc1)NC(=O)[C@H](CC(=O)O)NC(=O)[C@H](CO)NC(=O)[C@@H](NC(=O)[C@H](Cc1ccccc1)NC(=O)[C@@H](NC(=O)CNC(=O)[C@H](CCC(=O)O)NC(=O)[C@@H](C)NC(=O)CCN1CCCCC1=O)[C@@H](C)O)[C@@H](C)O)[C@@H](C)CC)C(C)C)C(N)=O)C(=O)O [Compound 214]
EC50 [1, 4]: 10 to 1000 nM
Emax ([2]; Table 3A): 45%
EC50 [2, 5]: 1 to 10 nM
Emax ([3]; Table 3A): 95%
EC50 [3, 6]: < 0.1 nM

CCCCCCCCCCCCCCCC(=O)N[C@@H](CCC(=O)NCCCC[C@H](NC(=O)[C@H](CO)NC(=O)[C@@H]1CCCN1C(=O)[C@@H]1CCCN1C(=O)[C@@H]1CCCN1C(=O)[C@H](C)NC(=O)CNC(=O)[C@H](CO)NC(=O)[C@H](CO)NC(=O)[C@@H]1CCCN1C(=O)CNC(=O)CNC(=O)[C@H](C)NC(=O)[C@H](CC(C)C)NC(=O)[C@H](CC(C)C)NC(=O)[C@H](Cc1c[nH]c2ccccc12)NC(=O)[C@H](CC(N)=O)NC(=O)[C@@H](NC(=O)[C@H](Cc1ccccc1)NC(=O)[C@H](CCC(=O)O)NC(=O)C(C)(C)NC(=O)[C@H](C)NC(=O)[C@H](C)NC(=O)[C@H](CCC(N)=O)NC(=O)[C@H](CCCCN)NC(=O)[C@H](CC(=O)O)NC(=O)[C@H](CC(C)C)NC(=O)[C@H](Cc1ccc(O)cc1)NC(=O)[C@@H](NC(=O)[C@H](CO)NC(=O)[C@H](Cc1ccc(O)cc1)NC(=O)[C@H](CC(=O)O)NC(=O)[C@H](CO)NC(=O)[C@@H](NC(=O)[C@H](Cc1ccccc1)NC(=O)[C@@H](NC(=O)CNC(=O)[C@H](CCC(=O)O)NC(=O)[C@H](C)NC(=O)CCN1CCCCC1=O)[C@@H](C)O)[C@@H](C)O)[C@@H](C)CC)C(C)C)C(N)=O)C(=O)O [Compound 212]
EC50 [1, 4]: 10 to 1000 nM
Emax ([2]; Table 3A): 50%
EC50 [2, 5]: 1 to 10 nM
Emax ([3]; Table 3A): 90%
EC50 [3, 6]: < 0.1 nM

CCCCCCCCCCCCCCCC(=O)N[C@@H](CCC(=O)NCCCC[C@H](NC(=O)[C@H](CO)NC(=O)[C@@H]1CCCN1C(=O)[C@@H]1CCCN1C(=O)[C@@H]1CCCN1C(=O)[C@H](C)NC(=O)CNC(=O)[C@H](CO)NC(=O)[C@H](CO)NC(=O)[C@@H]1CCCN1C(=O)CNC(=O)CNC(=O)[C@H](C)NC(=O)[C@H](CC(C)C)NC(=O)[C@H](CC(C)C)NC(=O)[C@H](Cc1c[nH]c2ccccc12)NC(=O)[C@H](CC(N)=O)NC(=O)[C@@H](NC(=O)[C@H](Cc1ccccc1)NC(=O)[C@H](CCC(=O)O)NC(=O)C(C)(C)NC(=O)[C@H](C)NC(=O)[C@H](C)NC(=O)[C@H](CCC(N)=O)NC(=O)[C@H](CCCCN)NC(=O)[C@H](CC(=O)O)NC(=O)[C@H](CC(C)C)NC(=O)[C@H](Cc1ccc(O)cc1)NC(=O)[C@@H](NC(=O)[C@H](CO)NC(=O)[C@H](Cc1ccc(O)cc1)NC(=O)[C@H](CC(=O)O)NC(=O)[C@H](CO)NC(=O)[C@@H](NC(=O)[C@H](Cc1ccccc1)NC(=O)[C@@H](NC(=O)CNC(=O)[C@H](CCC(=O)O)NC(=O)CCNC(=O)CCN1CCCCC1=O)[C@@H](C)O)[C@@H](C)O)[C@@H](C)CC)C(C)C)C(N)=O)C(=O)O [Compound 9]
EC50 [1, 4]: > 1000 nM
Emax ([2]; Table 3): 48%
EC50 [2, 7]: 1 to 10 nM
Emax ([2]; Table 3A): 48%
EC50 [2, 5]: 1 to 10 nM
Emax ([3]; Table 3): 100%
EC50 [3, 8]: < 0.1 nM
Emax ([3]; Table 3A): 100%
EC50 [3, 6]: < 0.1 nM

CCCCCCCCCCCCCCCC(=O)N[C@@H](CCC(=O)NCCCC[C@H](NC(=O)[C@H](CO)NC(=O)[C@@H]1CCCN1C(=O)[C@@H]1CCCN1C(=O)[C@@H]1CCCN1C(=O)[C@H](C)NC(=O)CNC(=O)[C@H](CO)NC(=O)[C@H](CO)NC(=O)[C@@H]1CCCN1C(=O)CNC(=O)CNC(=O)[C@H](C)NC(=O)[C@H](CC(C)C)NC(=O)[C@H](CC(C)C)NC(=O)[C@H](Cc1c[nH]c2ccccc12)NC(=O)[C@H](CC(N)=O)NC(=O)[C@@H](NC(=O)[C@H](Cc1ccccc1)NC(=O)[C@H](CCC(=O)O)NC(=O)C(C)(C)NC(=O)[C@H](C)NC(=O)[C@H](C)NC(=O)[C@H](CCC(N)=O)NC(=O)[C@H](CCCCN)NC(=O)[C@H](CC(=O)O)NC(=O)[C@H](CC(C)C)NC(=O)[C@H](Cc1ccc(O)cc1)NC(=O)[C@@H](NC(=O)[C@H](CO)NC(=O)[C@H](Cc1ccc(O)cc1)NC(=O)[C@H](CC(=O)O)NC(=O)[C@H](CO)NC(=O)[C@@H](NC(=O)[C@H](Cc1ccccc1)NC(=O)[C@@H](NC(=O)CNC(=O)[C@H](CCC(=O)O)NC(=O)CSCC(=O)NCC(=O)N1CCCCC1)[C@@H](C)O)[C@@H](C)O)[C@@H](C)CC)C(C)C)C(N)=O)C(=O)O [Compound 226]
EC50 [1, 4]: > 1000 nM
Emax ([2]; Table 3A): 17%
EC50 [2, 5]: 100 to 1000 nM
Emax ([3]; Table 3A): 89%
EC50 [3, 6]: 1 to 10 nM

CC[C@H](C)[C@H](NC(=O)[C@H](CO)NC(=O)[C@H](Cc1ccc(O)cc1)NC(=O)[C@H](CC(=O)O)NC(=O)[C@H](CO)NC(=O)[C@@H](NC(=O)[C@H](Cc1ccccc1)NC(=O)[C@@H](NC(=O)CNC(=O)[C@H](CCC(=O)O)NC(=O)C[S+]([O-])CC(=O)NCCN1C(=O)CSC1=O)[C@@H](C)O)[C@@H](C)O)C(=O)N[C@@H](Cc1ccc(O)cc1)C(=O)N[C@@H](CC(C)C)C(=O)N[C@@H](CC(=O)O)C(=O)N[C@@H](CCCCN)C(=O)N[C@@H](CCC(N)=O)C(=O)N[C@@H](C)C(=O)N[C@@H](C)C(=O)NC(C)(C)C(=O)N[C@@H](CCC(=O)O)C(=O)N[C@@H](Cc1ccccc1)C(=O)N[C@H](C(=O)N[C@@H](CC(N)=O)C(=O)N[C@@H](Cc1c[nH]c2ccccc12)C(=O)N[C@@H](CC(C)C)C(=O)N[C@@H](CC(C)C)C(=O)N[C@@H](C)C(=O)NCC(=O)NCC(=O)N1CCC[C@H]1C(=O)N[C@@H](CO)C(=O)N[C@@H](CO)C(=O)NCC(=O)N[C@@H](C)C(=O)N1CCC[C@H]1C(=O)N1CCC[C@H]1C(=O)N1CCC[C@H]1C(=O)N[C@@H](CO)C(=O)N[C@@H](CCCCN)C(N)=O)C(C)C (some centres unmarked) [Compound 170]
EC50 [1, 4]: > 1000 nM
EC50 [2, 7]: > 1000 nM
EC50 [2, 5]: > 1000 nM
Emax at 1 µM ([2]; read-out: (Emax) GIP-R at 1 μM, Table 3, at 1 μM): 5 to 8%
Emax ([3]; Table 3): 99%
EC50 [3, 8]: 1 to 10 nM
Emax ([3]; Table 3A): 99%
EC50 [3, 6]: 1 to 10 nM
